Reference: ChEMBL document CHEMBL5532679, “Discovery and Characterization of RGH-122, a Potent, Selective, and Orally Bioavailable V1a Receptor Antagonist” (J Med Chem, 2024)

Key:
in vitro [1] = details: human
animal or person [2] = details: Mus musculus, NMRI, po, read-out: INH
[3] = Apparent permeability of compound across apical to basal side in vinblastine treated human Caco-2 cells at 1 to 10 uM incubated for 15 to 60 mins by HPLC analysis
[4] = Efflux ratio of apparent permeability across basolateral to apical side over apical to basolateral side in vinblastine treated human Caco-2 cells at 1 to 10 uM incubated for 15 to 60 hrs by HPLC analysis
[5] = target: Voltage-gated inwardly rectifying potassium channel KCNH2 (Homo sapiens, UniProt Q12809)
Description: Inhibition of hERG expressed in CHO cells at -80 mV holding potential incubated for 7 to 10 mins by automated patch clamp method

in vitro [6] = details: Wistar, rat, microsomes
in vitro [7] = details: NMRI, mouse, microsomes
animal or person [8] = details: Mus musculus, NMRI, po, read-out: INH; remark: listed apart in the source
Vasopressin V1a receptor [9] = target: T1, Vasopressin V1a receptor (Homo sapiens, UniProt P37288)
Description: Displacement of [3H]vasopressin from human V1A receptor assessed as inhibition constant by Cheng-Prusoff equation analysis

Vasopressin V1a receptor [10] = target: T1, Vasopressin V1a receptor; remark: listed apart in the source
Description: Antagonist activity at human V1A receptor expressed in human 1321N1 cells assessed as Ca2+ mobilization incubated for 15 mins by FLIPR calcium 5 assay

in vitro [11] = details: CD-1, mouse, liver microsomes

T1 sequence (P37288 whole entry): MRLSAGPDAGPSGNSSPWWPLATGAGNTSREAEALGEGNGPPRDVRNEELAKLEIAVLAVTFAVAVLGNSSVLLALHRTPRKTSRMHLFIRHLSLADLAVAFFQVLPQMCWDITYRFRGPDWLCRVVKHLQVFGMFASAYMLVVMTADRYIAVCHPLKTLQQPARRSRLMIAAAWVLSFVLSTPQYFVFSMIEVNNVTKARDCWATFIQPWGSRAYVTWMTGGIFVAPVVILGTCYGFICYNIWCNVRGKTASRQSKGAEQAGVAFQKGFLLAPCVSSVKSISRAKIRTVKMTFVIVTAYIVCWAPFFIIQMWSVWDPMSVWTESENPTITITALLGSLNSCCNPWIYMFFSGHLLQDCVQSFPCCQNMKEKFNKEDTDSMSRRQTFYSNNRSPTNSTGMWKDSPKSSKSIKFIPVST
Voltage-gated inwardly rectifying potassium channel KCNH2, sequence (Q12809 whole entry): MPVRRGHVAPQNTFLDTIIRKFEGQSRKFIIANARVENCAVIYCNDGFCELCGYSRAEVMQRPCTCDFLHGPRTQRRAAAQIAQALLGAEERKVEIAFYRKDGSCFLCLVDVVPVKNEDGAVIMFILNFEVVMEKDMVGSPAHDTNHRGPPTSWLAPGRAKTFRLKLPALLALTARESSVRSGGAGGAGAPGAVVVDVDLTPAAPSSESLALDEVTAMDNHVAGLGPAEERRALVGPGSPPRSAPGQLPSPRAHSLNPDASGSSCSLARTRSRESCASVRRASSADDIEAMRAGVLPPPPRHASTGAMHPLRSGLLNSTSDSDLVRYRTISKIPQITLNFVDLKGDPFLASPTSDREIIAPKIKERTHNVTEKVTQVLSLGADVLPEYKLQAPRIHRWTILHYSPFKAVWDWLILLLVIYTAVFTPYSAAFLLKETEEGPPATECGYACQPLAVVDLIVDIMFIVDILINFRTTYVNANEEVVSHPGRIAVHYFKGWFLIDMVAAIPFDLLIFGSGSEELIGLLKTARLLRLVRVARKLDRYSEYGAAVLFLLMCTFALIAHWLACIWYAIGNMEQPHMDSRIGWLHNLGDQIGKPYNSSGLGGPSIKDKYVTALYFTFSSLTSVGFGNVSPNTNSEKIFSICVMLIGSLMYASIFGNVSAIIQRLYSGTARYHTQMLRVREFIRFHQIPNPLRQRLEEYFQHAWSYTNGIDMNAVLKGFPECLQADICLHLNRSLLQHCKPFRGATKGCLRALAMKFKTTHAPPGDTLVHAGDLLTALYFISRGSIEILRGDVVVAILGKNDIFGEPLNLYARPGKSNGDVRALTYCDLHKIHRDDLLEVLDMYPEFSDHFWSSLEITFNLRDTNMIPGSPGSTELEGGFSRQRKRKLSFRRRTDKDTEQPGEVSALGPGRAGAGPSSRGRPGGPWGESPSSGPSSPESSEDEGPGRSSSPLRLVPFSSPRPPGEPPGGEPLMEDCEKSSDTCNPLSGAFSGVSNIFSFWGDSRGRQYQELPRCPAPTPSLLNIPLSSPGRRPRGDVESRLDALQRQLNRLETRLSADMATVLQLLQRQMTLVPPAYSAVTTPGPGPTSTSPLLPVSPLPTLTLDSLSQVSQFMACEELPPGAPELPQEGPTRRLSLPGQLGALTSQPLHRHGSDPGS

Papp A→B at 10 µM [3] | efflux ratio at 10 µM [4] | microsomal CLint at 1 µM (in vitro [6]) | microsomal CLint at 1 µM (in vitro [7]) | microsomal CLint at 1 µM (in vitro [1]; microsomes) | Structure (SMILES) | also measured
 |  |  |  |  | Clc1ccc2c(c1)CCCc1nnc([C@H]3CC[C@H](Oc4ccccn4)CC3)n1-2 | microsomal CLint at 1 µM (in vitro [1]; liver microsomes): 29 µL/min/mg; inhibition in vivo at 10 mg/kg (animal or person [2]): 42%
23 ×10⁻⁶ cm/s | 3.5 | 56 µL/min/mg | 5 µL/min/mg |  | O[C@@H]1Cc2cc(Cl)ccc2-n2c(nnc2[C@H]2CC[C@H](Oc3ccccn3)CC2)C1 | IC50 [5]: > 30000 nM; inhibition in vivo at 10 mg/kg (animal or person [2]): 84%; inhibition in vivo at 3 mg/kg (animal or person [8]): 75%
20 ×10⁻⁶ cm/s |  | 18 µL/min/mg | 7 µL/min/mg |  | O[C@H]1Cc2cc(Cl)ccc2-n2c(nnc2[C@H]2CC[C@H](Oc3ccccn3)CC2)C1 | IC50 [5]: > 30000 nM; inhibition in vivo at 10 mg/kg (animal or person [2]): 92%; inhibition in vivo at 3 mg/kg (animal or person [8]): 84%
1.3 ×10⁻⁶ cm/s | 29 | 3 µL/min/mg | 3 µL/min/mg |  | O=C([C@H]1CC[C@H](c2nnc3n2-c2ccc(Cl)cc2CC2(C3)OCCO2)CC1)N1CCOCC1 | 
7 ×10⁻⁶ cm/s | 0.8 | 15 µL/min/mg | 27 µL/min/mg |  | Clc1ccc2c(c1)CC1(Cc3nnc([C@H]4CC[C@H](Oc5ccccn5)CC4)n3-2)OCCCO1 | inhibition in vivo at 10 mg/kg (animal or person [2]): 79%; inhibition in vivo at 3 mg/kg (animal or person [8]): 69%
 |  |  |  |  | CC(C)NC1Cc2cc(Br)ccc2-n2c(nnc2[C@H]2CC[C@H](Oc3ccccn3)CC2)C1 (stereo not given in full) | inhibition in vivo at 3 mg/kg (animal or person [8]): 64%
2.8 ×10⁻⁶ cm/s | 35 | 7 µL/min/mg | 9 µL/min/mg | 5 µL/min/mg | N[C@@H]1Cc2cc(Cl)ccc2-n2c(nnc2[C@H]2CC[C@H](Oc3ccccn3)CC2)C1 | IC50 [5]: 16700 nM
8.6 ×10⁻⁶ cm/s | 7.5 | 3 µL/min/mg | 6 µL/min/mg | 11 µL/min/mg | CN1CCN(CC2Cc3cc(Cl)ccc3-n3c(nnc3[C@H]3CC[C@H](Oc4ccccn4)CC3)C2)CC1 (stereo not given in full) | Ki (Vasopressin V1a receptor [9]): 0.8 nM; IC50 (Vasopressin V1a receptor [10]): 7.1 nM
 |  |  |  |  | CC(C)NC1Cc2ccccc2-n2c(nnc2[C@H]2CC[C@H](Oc3ccccn3)CC2)C1 (stereo not given in full) | Ki (Vasopressin V1a receptor [9]): 5.6 nM; inhibition in vivo at 3 mg/kg (animal or person [8]): 18%
 |  |  |  |  | c1ccc(O[C@H]2CC[C@H](c3nnc4n3-c3ccccc3CC3(C4)OCCO3)CC2)nc1 | inhibition in vivo at 10 mg/kg (animal or person [2]): 49%
 |  |  |  |  | FC[C@H]1Cc2cc(Cl)ccc2-n2c(nnc2[C@H]2CC[C@H](Oc3ccccn3)CC2)C1 | IC50 [5]: 13000 nM
 |  | 32 µL/min/mg |  | 34 µL/min/mg | O=C(N[C@@H]1Cc2cc(Cl)ccc2-n2c(nnc2[C@H]2CC[C@H](Oc3ccccn3)CC2)C1)C1CCC(F)(F)CC1 | microsomal CLint at 1 µM (in vitro [11]): 154 µL/min/mg
 |  |  |  |  | CC(C)N[C@H]1Cc2cc(Cl)ccc2-n2c(nnc2[C@H]2CC[C@H](Oc3ccccn3)CC2)C1 | IC50 [5]: 3800 nM
 |  | 86 µL/min/mg |  | 157 µL/min/mg | O=C(N[C@@H]1Cc2cc(Cl)ccc2-n2c(nnc2[C@H]2CC[C@H](Oc3ccccn3)CC2)C1)C1CCC1 | microsomal CLint at 1 µM (in vitro [11]): 91 µL/min/mg
 |  |  |  |  | Fc1ccc2c(c1)CC1(Cc3nnc([C@H]4CC[C@H](Oc5ccccn5)CC4)n3-2)OCCO1 | inhibition in vivo at 10 mg/kg (animal or person [2]): 49%
 |  | 77 µL/min/mg |  | 49 µL/min/mg | CC(C)(C)C(=O)N[C@@H]1Cc2cc(Cl)ccc2-n2c(nnc2[C@H]2CC[C@H](Oc3ccccn3)CC2)C1 | microsomal CLint at 1 µM (in vitro [11]): 242 µL/min/mg
2.6 ×10⁻⁶ cm/s | 44 | 36 µL/min/mg | 11 µL/min/mg | 4 µL/min/mg | N[C@H]1Cc2cc(Cl)ccc2-n2c(nnc2[C@H]2CC[C@H](Oc3ccccn3)CC2)C1 | 
 |  | 47 µL/min/mg | 39 µL/min/mg | 42 µL/min/mg | CN(C)CC1Cc2cc(Cl)ccc2-n2c(nnc2[C@H]2CC[C@H](Oc3ccccn3)CC2)C1 (stereo not given in full) | Ki (Vasopressin V1a receptor [9]): 0.5 nM; IC50 (Vasopressin V1a receptor [10]): 4.7 nM
42 ×10⁻⁶ cm/s | 1 | 12 µL/min/mg | 16 µL/min/mg |  | CO[C@]1(C)CC[C@@H](c2nnc3n2-c2ccc(Cl)cc2CC2(C3)OCCO2)CC1 | IC50 [5]: > 30000 nM; inhibition in vivo at 10 mg/kg (animal or person [2]): 41%; inhibition in vivo at 3 mg/kg (animal or person [8]): 0%
 |  |  |  |  | N#Cc1ccc2c(c1)CC1(Cc3nnc([C@H]4CC[C@H](Oc5ccccn5)CC4)n3-2)OCCO1 | inhibition in vivo at 10 mg/kg (animal or person [2]): 69%
2.7 ×10⁻⁶ cm/s | 14 | 1 µL/min/mg |  | 0.2 µL/min/mg | CC(=O)N[C@@H]1Cc2cc(Cl)ccc2-n2c(nnc2[C@H]2CC[C@H](Oc3ccccn3)CC2)C1 | microsomal CLint at 1 µM (in vitro [11]): 4 µL/min/mg
24 ×10⁻⁶ cm/s | 1.4 | 15 µL/min/mg | 16 µL/min/mg | 21 µL/min/mg | CCN[C@@H]1Cc2cc(Cl)ccc2-n2c(nnc2[C@H]2CC[C@H](Oc3ccccn3)CC2)C1 | IC50 [5]: 3500 nM
 |  |  |  |  | NC1CCc2cc(Cl)ccc2-n2c1nnc2[C@H]1CC[C@H](Oc2ccccn2)CC1 (stereo not given in full) | Ki (Vasopressin V1a receptor [9]): 8 nM; IC50 (Vasopressin V1a receptor [10]): 42 nM
 |  | 145 µL/min/mg | 101 µL/min/mg | 134 µL/min/mg | Clc1ccc2c(c1)CC(CN1CCOCC1)Cc1nnc([C@H]3CC[C@H](Oc4ccccn4)CC3)n1-2 (stereo not given in full) | Ki (Vasopressin V1a receptor [9]): 0.4 nM; IC50 (Vasopressin V1a receptor [10]): 2.1 nM

Papp A→B at 10 µM [3] | efflux ratio at 10 µM [4] | microsomal CLint at 1 µM (in vitro [6]) | microsomal CLint at 1 µM (in vitro [7]) | microsomal CLint at 1 µM (in vitro [1]; microsomes) | Structure (SMILES) | also measured
 |  |  |  |  | OC[C@@H]1Cc2cc(Cl)ccc2-n2c(nnc2[C@H]2CC[C@H](Oc3ccccn3)CC2)C1 | IC50 [5]: 19000 nM
 |  |  |  |  | OC[C@H]1Cc2cc(Cl)ccc2-n2c(nnc2[C@H]2CC[C@H](Oc3ccccn3)CC2)C1 | IC50 [5]: 23000 nM
 |  |  |  |  | OCC1Cc2cc(Cl)ccc2-n2c(nnc2[C@H]2CC[C@H](Oc3ccccn3)CC2)C1 (stereo not given in full) | IC50 [5]: 21400 nM
 |  |  |  |  | FC[C@@H]1Cc2cc(Cl)ccc2-n2c(nnc2[C@H]2CC[C@H](Oc3ccccn3)CC2)C1 | IC50 [5]: 12000 nM
4.3 ×10⁻⁶ cm/s | 14.6 | 1 µL/min/mg |  | 1 µL/min/mg | O=C(N[C@@H]1Cc2cc(Cl)ccc2-n2c(nnc2[C@H]2CC[C@H](Oc3ccccn3)CC2)C1)C1CC1 | microsomal CLint at 1 µM (in vitro [11]): 22 µL/min/mg
 |  | 26 µL/min/mg | 37 µL/min/mg | 26 µL/min/mg | FC1(F)CCC(NC2Cc3cc(Cl)ccc3-n3c(nnc3[C@H]3CC[C@H](Oc4ccccn4)CC3)C2)CC1 (stereo not given in full) | 
9.3 ×10⁻⁶ cm/s | 6.8 |  |  |  | CNC1CCc2nnc([C@H]3CC[C@H](Oc4ccccn4)CC3)n2-c2ccc(Cl)cc21 (stereo not given in full) | Ki (Vasopressin V1a receptor [9]): 1.3 nM; IC50 (Vasopressin V1a receptor [10]): 6.9 nM
 |  |  |  |  | CC(C)N[C@@H]1Cc2cc(Cl)ccc2-n2c(nnc2[C@H]2CC[C@H](Oc3ccccn3)CC2)C1 | IC50 [5]: 4000 nM
 |  |  |  |  | Brc1ccc2c(c1)CC1(Cc3nnc([C@H]4CC[C@H](Oc5ccccn5)CC4)n3-2)OCCO1 | inhibition in vivo at 10 mg/kg (animal or person [2]): 99%
 |  |  |  |  | FC(F)(F)c1ccc2c(c1)CC1(Cc3nnc([C@H]4CC[C@H](Oc5ccccn5)CC4)n3-2)OCCO1 | inhibition in vivo at 10 mg/kg (animal or person [2]): 76%
 |  | 29 µL/min/mg |  | 15 µL/min/mg | CN(C)CCC(=O)N[C@@H]1Cc2cc(Cl)ccc2-n2c(nnc2[C@H]2CC[C@H](Oc3ccccn3)CC2)C1 | microsomal CLint at 1 µM (in vitro [11]): 96 µL/min/mg
 |  | 25 µL/min/mg | 35 µL/min/mg | 48 µL/min/mg | NCC1Cc2cc(Cl)ccc2-n2c(nnc2[C@H]2CC[C@H](Oc3ccccn3)CC2)C1 (stereo not given in full) | Ki (Vasopressin V1a receptor [9]): 3.1 nM; IC50 (Vasopressin V1a receptor [10]): 15 nM
24 ×10⁻⁶ cm/s | 4.4 | 17 µL/min/mg | 14 µL/min/mg | 16 µL/min/mg | Clc1ccc2c(c1)CC(NC1COC1)Cc1nnc([C@H]3CC[C@H](Oc4ccccn4)CC3)n1-2 (stereo not given in full) | 
 |  |  |  |  | CC(C)NC1Cc2cc(C#N)ccc2-n2c(nnc2[C@H]2CC[C@H](Oc3ccccn3)CC2)C1 (stereo not given in full) | inhibition in vivo at 3 mg/kg (animal or person [8]): 56%
40 ×10⁻⁶ cm/s | 1.8 | 19 µL/min/mg | 24 µL/min/mg | 12 µL/min/mg | CNC1Cc2cc(Cl)ccc2-n2c(nnc2[C@H]2CC[C@H](Oc3ccccn3)CC2)C1 (stereo not given in full) | 
 |  | 6 µL/min/mg | 8 µL/min/mg | 20 µL/min/mg | CC(C)NCC1Cc2cc(Cl)ccc2-n2c(nnc2[C@H]2CC[C@H](Oc3ccccn3)CC2)C1 (stereo not given in full) | Ki (Vasopressin V1a receptor [9]): 2.8 nM; IC50 (Vasopressin V1a receptor [10]): 55 nM
8.1 ×10⁻⁶ cm/s | 7.1 | 8 µL/min/mg | 6 µL/min/mg | 14 µL/min/mg | Clc1ccc2c(c1)CC(CNC1CCOCC1)Cc1nnc([C@H]3CC[C@H](Oc4ccccn4)CC3)n1-2 (stereo not given in full) | Ki (Vasopressin V1a receptor [9]): 2.3 nM; IC50 (Vasopressin V1a receptor [10]): 15 nM
23 ×10⁻⁶ cm/s | 1.3 | 36 µL/min/mg | 37 µL/min/mg | 34 µL/min/mg | CN(C)C1Cc2cc(Cl)ccc2-n2c(nnc2[C@H]2CC[C@H](Oc3ccccn3)CC2)C1 (stereo not given in full) | 
41 ×10⁻⁶ cm/s | 1.1 | 9 µL/min/mg | 15 µL/min/mg | 24 µL/min/mg | Clc1ccc2c(c1)CC(NC1CCOCC1)Cc1nnc([C@H]3CC[C@H](Oc4ccccn4)CC3)n1-2 (stereo not given in full) | 
 |  |  |  |  | CC(C)NC1Cc2cc(F)ccc2-n2c(nnc2[C@H]2CC[C@H](Oc3ccccn3)CC2)C1 (stereo not given in full) | inhibition in vivo at 3 mg/kg (animal or person [8]): 58%
 |  | 6 µL/min/mg | 2 µL/min/mg | 0.2 µL/min/mg | CN(C)CC(=O)NC1Cc2cc(Cl)ccc2-n2c(nnc2[C@H]2CC[C@H](Oc3ccccn3)CC2)C1 (mixture of isomers) | 
3 ×10⁻⁶ cm/s | 29 | 11 µL/min/mg | 14 µL/min/mg | 2 µL/min/mg | NC1Cc2cc(Cl)ccc2-n2c(nnc2[C@H]2CC[C@H](Oc3ccccn3)CC2)C1 (mixture of isomers) | 
 |  |  |  |  | CC(C)NC1Cc2cc(Cl)ccc2-n2c(nnc2[C@H]2CC[C@H](Oc3ccccn3)CC2)C1 (mixture of isomers) | IC50 [5]: 3700 nM
